Measurements as given in US20260217683A1, “PYRIDAZINONE HETEROCYCLIC COMPOUND MYOSIN II INHIBITOR AND USE THEREOF” (Xizang Haisco Pharmaceutical Co., Ltd., priority 2023, published 2026).
Read-outs that look alike come from different tables or passages of the source.

Legend:
[1] = target: T1, CYP2C9 (Homo sapiens, UniProt P11712); assay: CYP450 enzyme inhibition, human liver microsomes, CYP2C9; assay type: in vitro ADME
T1 construct: incubated with human liver microsomes and test compounds of different concentrations; from tissue; host or cells: human liver microsomes
T1 sequence (P11712 whole entry): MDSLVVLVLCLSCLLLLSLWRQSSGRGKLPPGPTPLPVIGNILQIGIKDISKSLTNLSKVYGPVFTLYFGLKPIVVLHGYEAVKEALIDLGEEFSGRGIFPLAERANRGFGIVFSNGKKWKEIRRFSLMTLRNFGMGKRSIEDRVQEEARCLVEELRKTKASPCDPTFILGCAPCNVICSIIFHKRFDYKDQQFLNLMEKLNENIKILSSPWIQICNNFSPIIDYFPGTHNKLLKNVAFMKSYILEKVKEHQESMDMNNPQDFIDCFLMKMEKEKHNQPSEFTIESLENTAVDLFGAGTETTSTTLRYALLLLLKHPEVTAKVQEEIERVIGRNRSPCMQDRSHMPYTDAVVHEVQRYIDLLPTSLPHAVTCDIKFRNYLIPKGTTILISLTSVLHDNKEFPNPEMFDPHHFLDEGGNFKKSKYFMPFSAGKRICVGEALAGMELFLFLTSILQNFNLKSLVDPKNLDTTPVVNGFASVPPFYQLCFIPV
Experimental: (§1) The purpose of this study was to evaluate the effect of the test compound on the activity of five isoenzymes (CYP1A2, CYP2C9, CYP2C19, CYP2D6 and CYP3A4) of human liver microsomal cytochrome P450 (CYP) by using an in vitro testing system. The specific probe substrates of CYP450 isoenzymes were incubated with human liver microsomes and test compounds of different concentrations, and reduced nicotinamide adenine dinucleotide phosphate (NADPH) was added to initiate the reaction. After the completion of the reaction, the sample was treated and liquid chromatography-tandem mass spectrometry (LC-MS/MS) was used to quantitatively detect metabolites produced by specific substrates, changes in CYP enzyme activity were determined, and IC50 value was calculated to evaluate the inhibitory potential of the test compound on each CYP enzyme subtype.

[2] = test system: rabbit skeletal muscle myosin; assay: Inhibition of hydrolysis of ATP by rabbit skeletal muscle myosin; assay type: biochemical
Experimental: The purpose of this test was to evaluate the ability of compounds to inhibit the hydrolysis of ATP by rabbit skeletal muscle myosin. The determination method was as follows:
• Preformed F-actin filaments (#AKF99-B, Cytoskeleton) were diluted to 1 mg/mL with Reaction buffer (25 mM Tris-HCL, pH 7.5+35 mM KCl+0.1 mM EGTA+1 mM MgCl2); • Rabbit myosin (#MYO2-A, Cytoskeleton) was diluted to 0.1 mg/mL with Resuspension buffer (15 mM Tris-HCL, PH7.5+0.2 M KCl+1 mM MgCl2); • ATP (#BSA04-001, Cytoskeleton) was diluted to 3 mM working solution with 15 mM Tris-HCL (PH=7.5);
• adding 13 μL reaction buffer+12 μL F-actin to actin control wells; • adding 10 μL reaction buffer+12 μL F-actin+3 μL myosin II to positive control wells; • adding 10 μL of compound working solution+12 μL of F-actin+3 μL of myosin II to the compound wells; • adding 5 μL of ATP working solution to all test wells to start the reaction, and simultaneously adding a sample to the Pi standard wells according to the instruction (#BK054, Cytoskeleton); • gently mixing and accurately incubating at 37° C. for 60 min; • adding 70 μL of CytoPhos Reagent (#BK054, Cytoskeleton) to each well and incubating for 10 min to stop the reaction.
• the OD value of each well was detected at 650 nm using the endpoint method. The standard curve was fitted according to Pi concentration and OD value, and the Pi concentration of each test well was obtained. Inhibition (%)=(Pi positive control well-Pi test well)/Pi positive control well*100%. The Inhibition %-[…] curve was fitted with Graphpad Prism 8 software, and IC50 was calculated.

[3] = target: T2, smooth muscle myosin S1 (Gallus gallus, UniProt P10587); assay: Inhibition of hydrolysis of ATP by smooth muscle myosin S1 fragments; assay type: biochemical; conditions: 100 μM compound
T2 construct: purchased Cytoskeleton #CS-MYS05
T2 sequence (P10587 84-789 limits assumed): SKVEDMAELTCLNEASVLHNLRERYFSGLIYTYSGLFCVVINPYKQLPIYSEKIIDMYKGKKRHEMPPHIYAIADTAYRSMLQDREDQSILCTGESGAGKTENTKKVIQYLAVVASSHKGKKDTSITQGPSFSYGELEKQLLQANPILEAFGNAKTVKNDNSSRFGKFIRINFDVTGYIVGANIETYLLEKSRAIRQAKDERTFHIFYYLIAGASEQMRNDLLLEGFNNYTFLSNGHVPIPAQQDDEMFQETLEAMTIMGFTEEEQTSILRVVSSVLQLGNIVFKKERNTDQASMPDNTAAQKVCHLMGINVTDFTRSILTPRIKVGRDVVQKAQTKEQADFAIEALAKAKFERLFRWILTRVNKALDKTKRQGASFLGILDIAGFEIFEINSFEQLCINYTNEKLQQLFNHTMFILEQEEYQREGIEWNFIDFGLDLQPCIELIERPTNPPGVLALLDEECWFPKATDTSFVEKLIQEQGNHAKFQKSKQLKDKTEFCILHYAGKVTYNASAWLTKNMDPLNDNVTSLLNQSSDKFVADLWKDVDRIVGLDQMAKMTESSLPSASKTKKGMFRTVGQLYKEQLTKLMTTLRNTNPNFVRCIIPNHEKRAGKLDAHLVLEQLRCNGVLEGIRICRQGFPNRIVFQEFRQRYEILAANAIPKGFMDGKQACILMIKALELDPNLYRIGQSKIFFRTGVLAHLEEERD
T2 sequence (P02607 whole entry partner, the tested form may be a part): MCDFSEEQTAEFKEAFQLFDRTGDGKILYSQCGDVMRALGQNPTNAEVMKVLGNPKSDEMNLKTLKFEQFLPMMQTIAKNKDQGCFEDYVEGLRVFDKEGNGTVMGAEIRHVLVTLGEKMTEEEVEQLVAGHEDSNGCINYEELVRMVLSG
Experimental: The purpose of this test was to evaluate the ability of compounds to inhibit the hydrolysis of ATP by smooth muscle myosin Si fragments. The determination method was as follows: • 1. Solution formulation • F-actin polymer: Cardiac Actin powder (#CS-AD99, Cytoskeleton) was dissolved in a buffer (5 mM Pipes-KOH solution, PH=7.0, containing 100 μM ATP and 500 μM DTT) to form a 2 mg/mL solution and the solution was left at room temperature for 30 min; then 2 mM MgCl2 and 2 mM EGTA were added and the obtained system was left at room temperature for 40 min; • Smooth muscle SI fragment (#CS-MYS05, Cytoskeleton) was diluted with a pre-cooled PM12 buffer containing 1 mM DTT (12 mM Pipes-KOH solution, PH=7.0, containing 2 mM MgCl2) to form a 0.7 mg/mL solution; • ATP (#BSA04-001, Cytoskeleton) was diluted to 5 mM working solution with 15 mM Tris-HCL (PH=7.5); • 2. […] Experimental steps: • adding 10 μL of compound working solution+6 μL of F-actin polymer+4 μL of Smooth muscle Si fragment solution to the compound wells; • adding 10 μL of PM12 buffer containing DMSO+6 μL of F-actin polymer+4 μL of Smooth muscle S1 fragment solution to positive control wells; • adding 10 μL of PM12 buffer containing DMSO+6 μL of F-actin polymer+4 μL of PM12 buffer to negative control wells; • adding […] of 5 mM ATP working solution to all test wells to start the reaction, gently mixing and incubating at 37° C. for 20 min; • after the reaction was completed, taking 6 μLL of reaction liquid, adding 24 μL of PM12 buffer for 5-fold dilution, then detecting the content of the product Pi with a phosphate kit (#BK054, Cytoskeleton); • adding a standard according to the instructions, adding 70 μL of CytoPhos Reagent (#BK054, Cytoskeleton) to all wells and incubating at room temperature for 10 min before detection. • 4. Detection: • the OD value of each well was detected at 650 nm. The standard curve was fitted according to Pi standard concentration and OD value, and the Pi concentration of each test well was obtained. Inhibition (%)=(positive control well−test well)/positive control well*100%.

[4] = target: T3, CYP1A2 (Homo sapiens, UniProt P05177); assay: CYP450 enzyme inhibition, human liver microsomes, CYP1A2; assay type: in vitro ADME
T3 construct: incubated with human liver microsomes and test compounds of different concentrations; from tissue; host or cells: human liver microsomes
T3 sequence (P05177 1-516): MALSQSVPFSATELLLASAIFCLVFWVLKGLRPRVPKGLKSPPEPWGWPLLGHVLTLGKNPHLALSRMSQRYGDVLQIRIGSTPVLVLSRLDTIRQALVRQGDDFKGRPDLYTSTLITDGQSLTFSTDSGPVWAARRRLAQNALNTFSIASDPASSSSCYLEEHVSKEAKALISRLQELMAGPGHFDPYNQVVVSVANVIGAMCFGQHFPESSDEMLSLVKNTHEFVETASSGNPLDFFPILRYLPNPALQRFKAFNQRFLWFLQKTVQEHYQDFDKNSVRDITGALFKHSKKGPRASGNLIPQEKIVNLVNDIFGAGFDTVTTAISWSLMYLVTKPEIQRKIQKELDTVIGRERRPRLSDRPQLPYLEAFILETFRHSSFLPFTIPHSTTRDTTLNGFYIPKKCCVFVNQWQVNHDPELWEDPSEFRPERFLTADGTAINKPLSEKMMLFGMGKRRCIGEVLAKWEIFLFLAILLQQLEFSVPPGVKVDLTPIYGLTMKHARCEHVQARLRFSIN
Experimental: as §1

[5] = target: T4, CYP3A4 (Homo sapiens, UniProt P08684); assay: CYP450 enzyme inhibition, human liver microsomes, CYP3A4; assay type: in vitro ADME
T4 construct: incubated with human liver microsomes and test compounds of different concentrations; from tissue; host or cells: human liver microsomes
T4 sequence (P08684 whole entry): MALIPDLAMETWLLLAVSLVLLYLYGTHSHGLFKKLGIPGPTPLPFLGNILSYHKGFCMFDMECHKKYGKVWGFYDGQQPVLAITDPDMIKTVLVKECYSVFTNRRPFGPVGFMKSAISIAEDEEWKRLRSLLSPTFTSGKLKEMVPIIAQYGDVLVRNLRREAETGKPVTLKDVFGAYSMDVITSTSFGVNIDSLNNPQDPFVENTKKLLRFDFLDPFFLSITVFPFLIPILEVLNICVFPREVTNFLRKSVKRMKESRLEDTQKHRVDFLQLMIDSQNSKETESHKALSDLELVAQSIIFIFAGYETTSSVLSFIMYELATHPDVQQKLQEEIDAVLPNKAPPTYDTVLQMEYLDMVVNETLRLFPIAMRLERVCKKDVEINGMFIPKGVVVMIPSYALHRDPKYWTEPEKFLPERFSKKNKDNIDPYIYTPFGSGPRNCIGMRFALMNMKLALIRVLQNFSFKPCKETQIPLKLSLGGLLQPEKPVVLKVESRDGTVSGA
Experimental: as §1

[6] = target: T5, CYP2D6 (Homo sapiens, UniProt P10635); assay: CYP450 enzyme inhibition, human liver microsomes, CYP2D6; assay type: in vitro ADME
T5 construct: incubated with human liver microsomes and test compounds of different concentrations; from tissue; host or cells: human liver microsomes
T5 sequence (P10635 whole entry): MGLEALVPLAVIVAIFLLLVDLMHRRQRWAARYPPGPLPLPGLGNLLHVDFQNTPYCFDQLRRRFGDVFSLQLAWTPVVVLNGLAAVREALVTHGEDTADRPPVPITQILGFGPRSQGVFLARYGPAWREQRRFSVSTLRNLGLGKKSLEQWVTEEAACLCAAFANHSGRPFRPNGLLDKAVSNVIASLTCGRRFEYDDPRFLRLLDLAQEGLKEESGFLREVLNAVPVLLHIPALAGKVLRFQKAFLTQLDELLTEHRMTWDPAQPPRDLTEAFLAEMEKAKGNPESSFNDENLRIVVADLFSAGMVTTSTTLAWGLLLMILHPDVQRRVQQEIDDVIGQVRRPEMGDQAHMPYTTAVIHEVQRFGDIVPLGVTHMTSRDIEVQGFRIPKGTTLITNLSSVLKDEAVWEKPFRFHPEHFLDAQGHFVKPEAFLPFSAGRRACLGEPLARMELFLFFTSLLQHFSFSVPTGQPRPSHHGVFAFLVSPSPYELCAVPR
Experimental: as §1

[7] = target: T6, CYP2C19 (Homo sapiens, UniProt P33261); assay: CYP450 enzyme inhibition, human liver microsomes, CYP2C19; assay type: in vitro ADME
T6 construct: incubated with human liver microsomes and test compounds of different concentrations; from tissue; host or cells: human liver microsomes
Experimental: as §1

[8] = Pharmacokinetic experiment in mouse muscle tissue (tibialis anterior / plasma); assay type: in vivo, C57 mice; conditions: male, C57, tibialis anterior muscle / plasma, oral, intragastric 10 mg/kg, read-out: Ratio = Tibialis anterior Conc./Plasma Conc.
Experimental: 1. Experimental animals: Male C57 mice, 22-25 g, 6 mice/compound. Purchased from Chengdu Ddossy Experimental Animals Co., Ltd.
2. Experimental design: On the day of the experiment, C57 mice were randomly grouped according to their body weight. The animals were fasted with water available for 12 to 14 h one day before the administration and were fed 4 h after the administration. Administration was performed as per Table 10.1.

[9] = target: T7, cardiac myosin SII (Bos taurus, UniProt Q9BE39); assay: Inhibition of hydrolysis of ATP by cardiac myosin SII; assay type: biochemical; conditions: 100 μM compound
T7 construct: purchased Cytoskeleton #MYO3-A
T7 sequence (Q9BE39 whole entry): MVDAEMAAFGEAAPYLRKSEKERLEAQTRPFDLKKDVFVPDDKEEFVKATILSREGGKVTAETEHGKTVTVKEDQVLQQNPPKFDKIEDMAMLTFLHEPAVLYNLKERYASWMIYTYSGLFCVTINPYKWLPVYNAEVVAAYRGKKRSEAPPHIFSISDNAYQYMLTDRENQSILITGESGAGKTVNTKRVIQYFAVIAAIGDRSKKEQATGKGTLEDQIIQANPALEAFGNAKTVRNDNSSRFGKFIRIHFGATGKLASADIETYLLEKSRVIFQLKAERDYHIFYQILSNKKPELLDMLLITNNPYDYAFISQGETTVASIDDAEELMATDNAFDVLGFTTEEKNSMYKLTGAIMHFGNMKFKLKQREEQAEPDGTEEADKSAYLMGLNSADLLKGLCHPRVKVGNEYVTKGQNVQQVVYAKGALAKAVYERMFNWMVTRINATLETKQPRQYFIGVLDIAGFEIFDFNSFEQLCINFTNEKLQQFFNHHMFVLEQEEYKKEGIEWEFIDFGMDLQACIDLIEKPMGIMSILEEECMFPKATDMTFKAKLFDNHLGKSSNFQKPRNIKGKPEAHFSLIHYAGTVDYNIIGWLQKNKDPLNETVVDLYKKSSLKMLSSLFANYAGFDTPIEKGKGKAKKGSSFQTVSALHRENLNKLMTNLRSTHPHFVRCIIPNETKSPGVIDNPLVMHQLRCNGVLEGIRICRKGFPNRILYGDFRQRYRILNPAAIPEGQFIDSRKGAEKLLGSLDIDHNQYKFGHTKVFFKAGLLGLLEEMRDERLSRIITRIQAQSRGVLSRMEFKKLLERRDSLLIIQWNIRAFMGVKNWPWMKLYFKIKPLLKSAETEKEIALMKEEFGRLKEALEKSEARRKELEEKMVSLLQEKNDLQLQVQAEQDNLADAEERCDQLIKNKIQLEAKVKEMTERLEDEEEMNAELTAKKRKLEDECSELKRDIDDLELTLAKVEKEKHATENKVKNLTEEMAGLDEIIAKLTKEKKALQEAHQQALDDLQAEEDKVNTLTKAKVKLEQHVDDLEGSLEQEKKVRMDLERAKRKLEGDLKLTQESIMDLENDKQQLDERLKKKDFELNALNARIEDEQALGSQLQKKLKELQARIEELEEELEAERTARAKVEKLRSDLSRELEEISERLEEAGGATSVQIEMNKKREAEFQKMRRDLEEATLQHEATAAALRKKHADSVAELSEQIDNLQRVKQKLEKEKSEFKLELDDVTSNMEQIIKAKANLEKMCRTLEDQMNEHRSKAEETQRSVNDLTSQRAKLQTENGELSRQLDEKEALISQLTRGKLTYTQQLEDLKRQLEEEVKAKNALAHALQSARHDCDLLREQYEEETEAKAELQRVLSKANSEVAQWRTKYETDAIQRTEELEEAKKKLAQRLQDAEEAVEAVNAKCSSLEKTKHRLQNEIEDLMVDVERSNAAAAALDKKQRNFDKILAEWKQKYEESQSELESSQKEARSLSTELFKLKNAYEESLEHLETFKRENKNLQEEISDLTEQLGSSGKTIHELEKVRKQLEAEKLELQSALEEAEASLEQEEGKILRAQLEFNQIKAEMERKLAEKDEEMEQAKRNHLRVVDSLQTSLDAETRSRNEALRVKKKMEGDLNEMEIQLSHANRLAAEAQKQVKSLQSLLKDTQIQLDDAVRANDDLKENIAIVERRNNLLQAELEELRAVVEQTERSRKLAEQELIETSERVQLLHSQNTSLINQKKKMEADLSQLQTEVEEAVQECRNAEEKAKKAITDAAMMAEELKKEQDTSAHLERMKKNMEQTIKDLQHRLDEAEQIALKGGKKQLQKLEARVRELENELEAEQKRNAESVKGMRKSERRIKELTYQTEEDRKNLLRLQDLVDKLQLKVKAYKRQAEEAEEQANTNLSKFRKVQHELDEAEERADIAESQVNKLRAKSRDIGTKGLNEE
T7 sequence (P85100 whole entry partner): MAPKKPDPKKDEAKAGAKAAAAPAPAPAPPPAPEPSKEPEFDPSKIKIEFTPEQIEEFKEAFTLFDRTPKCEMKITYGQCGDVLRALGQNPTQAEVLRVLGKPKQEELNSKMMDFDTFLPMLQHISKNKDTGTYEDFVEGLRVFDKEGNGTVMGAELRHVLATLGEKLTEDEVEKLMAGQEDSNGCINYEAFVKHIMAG
T7 sequence (Q3SZE5 whole entry partner): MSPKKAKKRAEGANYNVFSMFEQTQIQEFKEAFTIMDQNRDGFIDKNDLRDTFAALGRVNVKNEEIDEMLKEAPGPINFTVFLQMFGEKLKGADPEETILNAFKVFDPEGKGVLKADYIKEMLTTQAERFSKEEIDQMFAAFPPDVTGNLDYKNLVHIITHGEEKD
Experimental: The purpose of this test was to evaluate the ability of compounds to inhibit the hydrolysis of ATP by cardiac myosin SII. The determination method was as follows: • 1. Solution formulation: • Preformed F-actin filaments (#AKF99-B, Cytoskeleton) were diluted to 1 mg/mL with Reaction buffer (15 mM Tris-HCL. PH7.5+10 mM KCl+0.1 mM EGTA+2 mM MgCl2); • Cardiac Muscle myosin (#MYO3-A, Cytoskeleton) was diluted to 1 mg/mL with Resuspension buffer (15 mM Tris-HCL, PH7.5+0.2M KCl+1 mM MgCl2); • ATP (#BSA04-001, Cytoskeleton) was diluted to 3 mM working solution with 15 mM Tris-HCL (PH=7.5); • 2. Formulation of working solution of compounds: the final compound concentration was 100 μM • 3. Experimental steps: • adding 10 μL of compound working solution+12 μL of Preformed F-actin filaments+3 μL of Cardiac Muscle myosin to the compound wells; • adding 10 μL of reaction buffer containing DMSO+12 μL Preformed F-actin filaments +3 μL Cardiac Muscle myosin to positive control wells; • adding 10 μL of reaction buffer containing DMSO+12 μL Preformed F-actin filaments +3 μL Resuspension buffer to negative control wells; • adding 5 μL of 3 mM ATP working solution to all test wells to start the reaction, gently mixing and incubating at 37° C. for 2 h; • after the reaction was completed, taking 6 μL of reaction liquid, adding 24 μL of reaction buffer for 5-fold dilution, then detecting the content of the product Pi with a phosphate kit (#BK054, Cytoskeleton); • adding a sample to Pi standard wells according to the instructions; • adding 70 μL of CytoPhos Reagent (#BK054, Cytoskeleton) to each well and incubating at room temperature for 10 min before detection. • 4. Detection: • the OD value of each well was detected at 650 nm. The standard curve was fitted according to Pi standard concentration and OD value, and the Pi concentration of each test well was obtained. Inhibition (%)=(positive control well−test well)/positive control well*100%.

[10] = inhibition of hydrolysis of ATP, class symbols, read-out: Rabbit skeletal muscle myosin (IC50)
[11] = read-out: IC50 for inhibition of hydrolysis of ATP by rabbit skeletal muscle myosin

| Compound | IC50 [1] [µM] | IC50 [2, 10] [µM] | IC50 [2, 11] [µM] | inhibition at 100 µM [3] [%] | IC50 [4] [µM] | IC50 [5] [µM] | IC50 [6] [µM] | IC50 [7] [µM] | Kp at 6 h [8] | Kp at 24 h [8] | inhibition at 100 µM [9] [%] | Smooth muscle myosin S1 (Inhibition @ 100 μM) ([3]; 100 µM) [%] | Cardiac myosin SII (Inhibition @ 100 μM) ([9]; 100 µM) [%] |
| --- | --- | --- | --- | --- | --- | --- | --- | --- | --- | --- | --- | --- | --- |
| O=C1Cc2cc(Cn3nc(-c4cnc(OCC(F)(F)F)nc4)ccc3=O)ccc21 [Compound 72] | > 30 | < 2.5 | 0.56 | 23.6 | > 30 | > 30 | > 30 | > 30 | – | – | – | – | – |
| O=c1ccc(-c2cnc(O[C@H]3CCOC3)nc2)nn1Cc1ccc2c(c1)CC2 [Compound 106] | > 30 | < 2.5 | 0.2 | – | > 30 | > 30 | > 30 | > 30 | – | – | – | – | – |
| CC(F)(F)COc1ncc(-c2ccc(=O)n(Cc3ccc4c(c3)C(=O)CC4)n2)cn1 [Compound 139] | – | < 2.5 | 0.6 | 6 | – | – | – | – | 63.5 | 85.5 | 6 | – | – |
| O=C1CCc2c(F)cc(Cn3nc(-c4cnc(OCC(F)(F)F)nc4)ccc3=O)cc21 [Compound 153] | > 30 | < 2.5 | 0.5 | -12 | > 30 | > 30 | > 30 | > 30 | 73.3 | 96.7 | – | – | – |
| O=c1ccc(-c2cnc(OCC(F)(F)F)nc2)nn1Cc1ccc2c(c1)C1CC1C2 (centres unmarked) [Compound 159] | – | < 2.5 | 0.4 | – | – | – | – | – | – | – | – | 5 | 7 |
| O=C1CCc2c(F)cc(Cn3nc(-c4cnc(O[C@@H]5CCOC5)nc4)ccc3=O)cc21 [Compound 163] | > 30 | < 2.5 | – | 14 | > 30 | > 30 | > 30 | > 30 | – | – | – | – | – |
| O=C1CCc2c(Cl)cc(Cn3nc(-c4cnc(OCC(F)(F)F)nc4)ccc3=O)cc21 [Compound 166] | – | < 2.5 | – | 6 | – | – | – | – | – | – | 17 | – | – |
| Cc1cc(Cn2nc(-c3cnc(OCC(F)(F)F)nc3)ccc2=O)cc2c1CCC2=O [Compound 169] | > 30 | < 2.5 | 0.8 | – | > 30 | > 30 | > 30 | > 30 | – | – | – | – | – |
| O=C1CCc2c(Cl)cc(Cn3nc(-c4cnc(C5CC5)nc4)ccc3=O)cc21 [Compound 170] | > 30 | < 2.5 | 0.9 | – | > 30 | > 30 | > 30 | > 30 | – | – | – | – | – |
| O=C1CCc2c(Cl)cc(Cn3nc(-c4cnc(O[C@@H]5CCOC5)nc4)ccc3=O)cc21 [Compound 171] | > 30 | < 2.5 | 0.9 | – | > 30 | > 30 | > 30 | > 30 | 90.1 | 161 | – | – | – |
| O=C1CCc2c(Cl)cc(Cn3nc(-c4cnc(O[C@H]5CCOC5)nc4)ccc3=O)cc21 [Compound 172] | > 30 | < 2.5 | 1 | – | > 30 | > 30 | > 30 | > 30 | 67 | 129 | – | – | – |
| O=C1CCc2c1cc(Cn1nc(-c3cnc(OCC(F)(F)F)nc3)ccc1=O)cc2C(F)F [Compound 176] | > 30 | < 2.5 | – | – | > 30 | > 30 | > 30 | > 30 | – | – | – | – | – |
